Measurements from patent publication US7893288B2, “Poly-halogenated triazapentadiene compositions” (Board of Regents, The University of Texas System, priority 2007, dated 2011).
“And” between values parts separate entries of the source, which are not always exact repeats. Equal entries are not always repeated.

Legend:
Assay type in all cases: cell-based
[1] = system: Gram positive and Gram negative bacteria; assay: Antimicrobial activity, summary of TABLES 16-18
Method: The new class of fluorinated triazapentadiene compounds with and without metal complexation as described herein were analyzed for antibacterial activity against several bacterial strains (both Gram positive and Gram negative). Methods for antimicrobial analysis included a modified Kirby-Bauer method and a determination of their minimum inhibitory concentrations. In brief, the modified Kirby-Bauer method relied on placement of a filter disk impregnated with a desired compound on a solid growth medium. Bacteria were grown to a confluent lawn and the extent of growth inhibition was measured (e.g., as an extent/percentage of a clear zone on the disk and/or solid medium).
For MIC assessment, compounds were initially dissolved in DMSO and serial dilutions of soluble compounds were made in LB broth.

[2] = system: Pseudomonas aeruginosa PAO1; assay: Minimum inhibitory concentration in LB broth, P. aeruginosa; conditions: for Relative to AgNO3: efficacy per mole from MIC values
Bacillus subtilis W168 [3] = assay: Disk sensitivity test (modified Kirby-Bauer), B. subtilis;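 also: Compound-loaded filter disks on LB agar plates seeded with a bacterial lawn, plates held overnight at 37 °C, then the clear zone around each disk measured, compounds in DMSO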
Method: (§1) Filter disks were provided as sterile filter paper (about 6 mm in diameter) and spotted with 20 μL of a selected compound. Each compound was initially dissolved in dimethylsulfoxide (DMSO); any subsequent dilutions were also made in DMSO. Each filter was placed on an LB agar plate spread with 100 μL of a bacterial culture that had been grown overnight in suitable LB broth. Plates were incubated overnight at 37° C., after which, the extent of growth inhibition around each filter disk was measured. Bacterial strains included Staphylococcus aureus (ATCC 25923), Pseudomonas aeruginosa PAO1, Bacillus subtilis W168 and Escherichia coli HB101. […] The latter two strains are non-pathogenic Gram-positive and Gram-negative bacterial strains, respectively.

[4] = system: Staphylococcus aureus (ATCC 25923); assay: Minimum inhibitory concentration in LB broth, S. aureus; conditions: for Relative to AgNO3: efficacy per mole from MIC values
[5] = system: Pseudomonas aeruginosa PAO1; assay: Disk sensitivity test (modified Kirby-Bauer), P. aeruginosa;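 also: Compound-loaded filter disks on LB agar lawns, DMSO as solvent, zone of inhibition around each disk read after overnight incubation at 37 °C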
Method: as §1

Escherichia coli HB101 [6] = assay: Disk sensitivity test (modified Kirby-Bauer), E. coli;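 also: filter disk loaded with compound in DMSO laid on an LB agar bacterial lawn, kept overnight at 37 °C, then the inhibition zone around the disk is measured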
Method: as §1

[7] = system: Staphylococcus aureus (ATCC 25923); assay: Disk sensitivity test (modified Kirby-Bauer), S. aureus;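 also: Compound-loaded filter disks on LB agar plates seeded with a confluent bacterial lawn, compound dissolved in DMSO, plates kept overnight at 37 °C, then inhibition zone around disk measured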
Method: as §1

Bacillus subtilis W168 [8] = assay: Minimum inhibitory concentration in LB broth, B. subtilis; conditions: for Relative to AgNO3: efficacy per mole from MIC values
Escherichia coli HB101 [9] = assay: Minimum inhibitory concentration in LB broth, E. coli; conditions: for Relative to AgNO3: efficacy per mole from MIC values;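 as to all read-outs here: broth dilution MIC, test compounds first taken up in DMSO, then serially diluted in LB medium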

Structure (SMILES) | antimicrobial activity (in words) [1] | MIC [2] | Relative to AgNO3 [2] | Diameter of the zone of growth inhibition (Bacillus subtilis W168 [3]; 5.7 × 10^0 mM) [mm] | Diameter of the zone of growth inhibition (Bacillus subtilis W168 [3]; 5.7 × 10^1 mM) [mm] | Diameter of the zone of growth inhibition (Bacillus subtilis W168 [3]; 5.7 × 10^−1 mM) [mm] | Diameter of the zone of growth inhibition (Bacillus subtilis W168 [3]; 5.7 × 10^−2 mM) [mm] | Diameter of the zone of growth inhibition (Bacillus subtilis W168 [3]; 5.7 × 10^−3 mM) [mm] | Diameter of the zone of growth inhibition (Bacillus subtilis W168 [3]; 5.7 × 10^−4 mM) | Diameter of the zone of growth inhibition (Bacillus subtilis W168 [3]; 5.7 × 10^−5 mM) | MIC [4] | Relative to AgNO3 [4] | Diameter of the zone of growth inhibition ([5]; 5.7 × 10^0 mM) [mm] | Diameter of the zone of growth inhibition ([5]; 5.7 × 10^1 mM) [mm] | Diameter of the zone of growth inhibition ([5]; 5.7 × 10^−1 mM) [mm] | Diameter of the zone of growth inhibition ([5]; 5.7 × 10^−2 mM) | Diameter of the zone of growth inhibition ([5]; 5.7 × 10^−3 mM) | Diameter of the zone of growth inhibition (Escherichia coli HB101 [6]; 5.7 × 10^0 mM) [mm] | Diameter of the zone of growth inhibition (Escherichia coli HB101 [6]; 5.7 × 10^1 mM) [mm] | Diameter of the zone of growth inhibition (Escherichia coli HB101 [6]; 5.7 × 10^−1 mM) [mm] | further results
FC(F)(F)C(F)(F)C(F)(F)C(=Nc1c(Cl)cccc1Cl)N=C([N]([Ag])c1c(Cl)cccc1Cl)C(F)(F)C(F)(F)C(F)(F)F [[N{(C3F7)C(2,6-Cl2C6H3)N}2]Ag] | Effective | 72.20 μg/ml and 8.98 × 10^−2 mM | 2.05 × 10^−1 | 21.0 | 19.5 | 18.0 | 19.0 | 12.0 | 6.0 (NZ) mm | 6.0 (NZ) mm | 0.853 μg/ml and 1.12 × 10^−2 mM | 69.43 | 13.5 | 15.0 | 10.0 | 7.0 mm | 6.0 (NZ) mm | 16.0 | 15.5 | 11.0 | sensitivity of the bacteria to the compound (in words) [2]: most sensitive; Diameter of the zone of growth inhibition (Escherichia coli HB101 [6]; 5.7 × 10^−2 mM): 9.0 mm; Diameter of the zone of growth inhibition (Escherichia coli HB101 [6]; 5.7 × 10^−3 mM): 7.0 mm; Diameter of the zone of growth inhibition ([7]; 5.7 × 10^0 mM): 16.5 mm; Diameter of the zone of growth inhibition ([7]; 5.7 × 10^1 mM): 20.0 mm; Diameter of the zone of growth inhibition ([7]; 5.7 × 10^−1 mM): 15.0 mm; Diameter of the zone of growth inhibition ([7]; 5.7 × 10^−2 mM): 14.5 mm; Diameter of the zone of growth inhibition ([7]; 5.7 × 10^−3 mM): 11.0 mm; Diameter of the zone of growth inhibition ([7]; 5.7 × 10^−4 mM): 6.0 (NZ) mm; Diameter of the zone of growth inhibition ([7]; 5.7 × 10^−5 mM): 6.0 (NZ) mm; MIC (Bacillus subtilis W168 [8]): 4.27 × 10^−1 μg/ml and 5.31 × 10^−4 mM; Relative to AgNO3 (Bacillus subtilis W168 [8]): 276.84; MIC (Escherichia coli HB101 [9]): 72.20 μg/ml and 8.98 × 10^−2 mM; sensitivity of the bacteria to the compound (in words) (Escherichia coli HB101 [9]): most sensitive; Relative to AgNO3 (Escherichia coli HB101 [9]): 6.56 × 10^−1
Fc1cccc(C(F)(F)F)c1N=C(N=C([N]([Ag])c1c(F)cccc1C(F)(F)F)C(F)(F)C(F)(F)C(F)(F)F)C(F)(F)C(F)(F)C(F)(F)F [[N{(C3F7)C(2-F,6-CF3C6H3)N}2]Ag] | Effective | 17.56 μg/ml and 2.1 × 10^−2 mM | 8.76 × 10^−1 | 131.0 | 115.0 | 78.0 | 39.0 | 10.0 | 10.0 mm | 9.0 mm | 8.78 × 10^−1 μg/ml and 1.05 × 10^−3 mM | 70.10 | 15.0 | 23.5 | 9.0 | 6.0 (NZ) mm | 6.0 (NZ) mm | 12.5 | 22.0 | 10.0 | sensitivity of the bacteria to the compound (in words) [2]: most sensitive; Diameter of the zone of growth inhibition (Bacillus subtilis W168 [3]; 5.7 × 10^−6 mM): 9.0 mm; Diameter of the zone of growth inhibition (Bacillus subtilis W168 [3]; 5.7 × 10^−7 mM): 7.5 mm; Diameter of the zone of growth inhibition (Escherichia coli HB101 [6]; 5.7 × 10^−2 mM): 9.0 mm; Diameter of the zone of growth inhibition (Escherichia coli HB101 [6]; 5.7 × 10^−3 mM): 8.0 mm; Diameter of the zone of growth inhibition ([7]; 5.7 × 10^0 mM): 14.0 mm; Diameter of the zone of growth inhibition ([7]; 5.7 × 10^1 mM): 19.0 mm; Diameter of the zone of growth inhibition ([7]; 5.7 × 10^−1 mM): 9.5 mm; Diameter of the zone of growth inhibition ([7]; 5.7 × 10^−2 mM): 9.0 mm; Diameter of the zone of growth inhibition ([7]; 5.7 × 10^−3 mM): 7.5 mm; Diameter of the zone of growth inhibition ([7]; 5.7 × 10^−4 mM): 6.0 (NZ) mm; Diameter of the zone of growth inhibition ([7]; 5.7 × 10^−5 mM): 6.0 (NZ) mm; Diameter of the zone of growth inhibition ([7]; 5.7 × 10^−6 mM): 6.0 (NZ) mm; Diameter of the zone of growth inhibition ([7]; 5.7 × 10^−7 mM): 6.0 (NZ) mm; MIC (Bacillus subtilis W168 [8]): 8.70 × 10^−2 μg/ml and 1.04 × 10^−4 mM; Relative to AgNO3 (Bacillus subtilis W168 [8]): 1413.46; MIC (Escherichia coli HB101 [9]): 8.78 μg/ml and 1.00 × 10^−2 mM; sensitivity of the bacteria to the compound (in words) (Escherichia coli HB101 [9]): most sensitive; Relative to AgNO3 (Escherichia coli HB101 [9]): 5.89
FC(F)(F)C(F)(F)C(F)(F)C(=Nc1c(Cl)cccc1Cl)N=C(Nc1c(Cl)cccc1Cl)C(F)(F)C(F)(F)C(F)(F)F [[N{(C3F7)C(2,6-Cl2C6H3)N}2]H] | Effective | >16671.80 μg/ml and >23.92 mM | <7.69 × 10^−4 | 19.0 | 21.0 | 18.5 | 19.0 | 13.0 | 8.5 mm | 7.0 mm | 7.80 μg/ml and 2.12 × 10^−3 mM | 6.57 | 8.0 | 9.0 | 8.0 | 8.0 mm | 7.0 mm | 8.0 | 9.0 | 8.0 | Diameter of the zone of growth inhibition (Bacillus subtilis W168 [3]; 5.7 × 10^−6 mM): 7.5 mm; Diameter of the zone of growth inhibition (Bacillus subtilis W168 [3]; 5.7 × 10^−7 mM): 6.0 (NZ) mm; Diameter of the zone of growth inhibition (Escherichia coli HB101 [6]; 5.7 × 10^−2 mM): 8.0 mm; Diameter of the zone of growth inhibition (Escherichia coli HB101 [6]; 5.7 × 10^−3 mM): 6.0 (NZ) mm; Diameter of the zone of growth inhibition ([7]; 5.7 × 10^0 mM): 20.0 mm; Diameter of the zone of growth inhibition ([7]; 5.7 × 10^1 mM): 13.0 mm; Diameter of the zone of growth inhibition ([7]; 5.7 × 10^−1 mM): 16.0 mm; Diameter of the zone of growth inhibition ([7]; 5.7 × 10^−2 mM): 15.0 mm; Diameter of the zone of growth inhibition ([7]; 5.7 × 10^−3 mM): 7.0 mm; Diameter of the zone of growth inhibition ([7]; 5.7 × 10^−4 mM): 7.0 mm; Diameter of the zone of growth inhibition ([7]; 5.7 × 10^−5 mM): 8.0 mm; Diameter of the zone of growth inhibition ([7]; 5.7 × 10^−6 mM): 6.0 (NZ) mm; Diameter of the zone of growth inhibition ([7]; 5.7 × 10^−7 mM): 6.0 (NZ) mm; MIC (Bacillus subtilis W168 [8]): 4.27 × 10^−1 μg/ml and 4.59 × 10^−4 mM; Relative to AgNO3 (Bacillus subtilis W168 [8]): 320.26; MIC (Escherichia coli HB101 [9]): >16671.80 μg/ml and >23.92 mM; Relative to AgNO3 (Escherichia coli HB101 [9]): <2.46 × 10^−3
